Here are results for one substance from US20130337486A1, “MICROFLUIDIC DEVICE FOR HIGH-[…] GRADIENT AND DOSE RESPONSE STUDIES” (UCSD Tech Transfer Office, priority 2005, published 2013).

In one assay the test system is Fus1-yEGFP. The assay is described as follows: Fus1-yEGFP expression in yeast cell clusters exposed to a pheromone gradient. Format: cell-based. As to the method:
(§1) Using a device of the invention such as that shown in FIG. 1, analysis of phenotypic dose response in single cells was performed. Yeast cells were grown in YPD media to mid-log phase, and concentrated 10-fold before loading into syringes. The maximum pheromone concentrations used in the experiments was typically 75-100 nM, with varying minimum and maximum ranges for specific experiments. Pheromone diffusion was estimated by fluorescence imaging of the diffusion of Alexa Fluor dye 555 Hydrozide (Molecular Probes), with the MW of approximately 1150 Da (cf. 1684 Da MW of the a-factor), which was used at the concentration of 5 μM. […]
(§2) Images were acquired using the Nikon Eclipse TE2000-U inverted epi-fluorescence microscope, using 20× (evaluation of the gradient values), and 100× (oil immersion; evaluation of yEGFP fluorescence) objectives. Phase contrast images were taken with automatic exposure control, whereas most fluorescence measurements involved manually specified fixed exposure times. Typical gradient measurements using Alexa Fluor 555 dye were obtained using red filter (G-2 EIC, 540/25 excitation wavelength) at a fixed exposure time of 1 sec, whereas yEGFP-mediated fluorescence was obtained using the green filter (YEL-GFP HQ, 500/20 excitation wavelength) at fixed exposure times of 3 secs. […]

The test system of another assay is a-Type Yeast. The assay is described as follows: Phenotypic dose response of single yeast cells to a pheromone gradient in the microfluidic device. The class given is cell-based. As to the method:
as §1, §2

Take α-factor: the “pheromone concentration range with clear bimodal nuclear Fus1-yEGFP response” value in the assay on Fus1-yEGFP (six hours after exposure to 0-75 nM pheromone gradient) was 15 to 45 nM. Besides, the “difference in Fus1-yEGFP expression between SM cells and cells of all other phenotypes in the bimodal region” value in the assay with Fus1-yEGFP (six hours, 0-75 nM pheromone gradient, bimodal region) is given as “approximately 1.7 fold”. In addition, the “phenotype after pre-incubation in high uniform pheromone concentration” value with a-Type Yeast (75 nM uniform pheromone for 4 hrs) is on record as “shmoo formation by all cells”. Also, in the assay on a-Type Yeast (pheromone gradients from 0 up to 100 nM in test chambers), the “pheromone concentration range in which percentages of budded (BD), cell cycle arrest (CCA) and SM cells were comparable” value was 15 to 40 nM.
